# Test results: patent US11213507B2, “MRSA biofilm inhibition” (University of South Florida, priority 2016, dated 2022)
# Tests used:
# [1] = Cytotoxicity assay (MTS, 72 h) in J774 macrophage cell line; assay type: cell-based; conditions: mouse, J774.A-1 macrophage cell line
# Source text: (§1) Spongian diterpenes are well known as bioactive natural products. Darwinolide was screened for activity against a clinical strain of a highly resistant Staphylococcus aureus (MRSA). […] The remaining colony was subjected to a cell recovery experiment overnight after washout of darwinolide. […] Based on the 4-fold selectivity of darwinolide for MRSA biofilms over planktonic cells, and its low mammalian cytotoxicity, darwinolide presents a highly suitable scaffold for the development of urgently needed, novel anti-biofilm-specific antibiotics.
# The J774.A-1 cell line was used for cytotoxicity screening via a colorometric method employing a tetrazolium derivative [3-(4,5-dimethylthiazol-2-yl)-5-(3-carboxymethoxyphenyl)-2-(4-sulfophenyl)-2H-tetrazolium] (MTS) 72 h assay using 50000 […] per well, and an electron-coupling reagent, and penazine methosulphate (PMS) were used in the assay. IC50 values were calculated from sigmoidal inhibition curves using SigmaPlot 11.0 software (von Salm et al., J. Org. Lett. 2014, 16, 2630-2633).
# [2] = tested on: methicillin-resistant Staphylococcus aureus (MRSA) CBD-635; test: Broth dilution MIC assay against clinical MRSA strain; assay type: cell-based
# Source text: as §1
# (§2) A clinical, multi-drug resistant strain of MRSA (CBD-635) was used in these studies for minimum inhibitory concentration (MIC) determination and assessment of anti-biofilm properties, all as described previously (Fleeman et al., J. Med. Chem. 2015, 58, 3340-3355).
# MRSA biofilm (CBD-635) = test: In vitro MRSA biofilm assay; assay type: cell-based, Staphylococcus aureus
# Source text: as §1, §2
# [3] = tested on: methicillin-resistant Staphylococcus aureus (MRSA) CBD-635; assay type: cell-based
# Source text: as §1, §2
smiles,measurement,setting,value
CC(=O)O[C@@H]1O[C@H]2OC(=O)C3=C(C)[C@@H]([C@@]4(C)CCCC(C)(C)C4)CC[C@@H]1[C@H]32 [darwinolide],IC50 at 72 h,[1],73.4 µM
same,MIC,[2],133 µM
same,IC50,"MRSA biofilm (CBD-635); Staphylococcus aureus, biofilm established in vitro with same MRSA strain, read-out: IC50 against the biofilm",33.2 µM
same,selectivity for MRSA biofilms over planktonic cells,MRSA biofilm (CBD-635); biofilm IC50 vs planktonic MIC,4 fold
same,cytotoxic or cytostatic toward S. aureus,[3]; conclusion from cell recovery experiment,"cytotoxic, rather than cytostatic"
same,treated bacterium able to recover and grow,"[3]; overnight recovery after washout of darwinolide, colony remaining from MIC assay",1.6%
